Experimental data from BindingDB's records for patent US20240368170 (Genentech, 2024).

Biological target: Mitogen-activated protein kinase kinase kinase kinase 1 (Homo sapiens, UniProt Q92918)
Experiment: Lantha Binding Assay
Method: For the binding assay, 4 μL 2×HPK1 and Eu-anti-GST antibody were added to each well of the assay plate using a Multidrop reagent dispenser. The solutions were incubated in a 23 C incubator for 1 h. […] The solutions were again incubated in a 23° C. incubator for 1 h.

Chain of Mitogen-activated protein kinase kinase kinase kinase 1 (Q92918 whole entry): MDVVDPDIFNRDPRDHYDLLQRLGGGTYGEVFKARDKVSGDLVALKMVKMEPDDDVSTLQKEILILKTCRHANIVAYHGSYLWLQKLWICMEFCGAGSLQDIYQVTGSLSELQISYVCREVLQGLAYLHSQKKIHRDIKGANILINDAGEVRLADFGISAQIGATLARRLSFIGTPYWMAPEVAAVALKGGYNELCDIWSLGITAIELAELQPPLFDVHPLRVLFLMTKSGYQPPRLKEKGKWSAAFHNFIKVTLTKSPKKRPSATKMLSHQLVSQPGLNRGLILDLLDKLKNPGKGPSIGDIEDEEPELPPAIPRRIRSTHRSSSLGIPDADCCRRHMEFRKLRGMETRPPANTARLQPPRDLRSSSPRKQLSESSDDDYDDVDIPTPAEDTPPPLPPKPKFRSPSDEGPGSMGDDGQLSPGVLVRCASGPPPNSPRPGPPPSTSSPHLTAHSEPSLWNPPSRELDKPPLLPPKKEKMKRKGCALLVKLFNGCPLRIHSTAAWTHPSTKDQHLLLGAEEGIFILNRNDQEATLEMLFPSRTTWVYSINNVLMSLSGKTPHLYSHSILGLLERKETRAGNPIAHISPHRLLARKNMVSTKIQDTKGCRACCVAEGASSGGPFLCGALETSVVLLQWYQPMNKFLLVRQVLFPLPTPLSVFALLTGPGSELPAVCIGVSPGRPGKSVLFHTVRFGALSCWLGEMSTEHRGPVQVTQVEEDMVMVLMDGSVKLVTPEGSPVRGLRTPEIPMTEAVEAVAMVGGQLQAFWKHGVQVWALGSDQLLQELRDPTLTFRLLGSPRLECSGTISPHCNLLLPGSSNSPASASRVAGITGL

CCn1cc(-c2cc(N)c3nnc(NC(=O)[C@@H]4C[C@@H]4F)cc3c2)cn1 [US20240368170, Compound 1a]
Ki: 0.084 µM

CC(C)NC(=O)Nc1cc2cc(-c3cnn(C)c3)cc(N)c2nn1 [US20240368170, Compound 8]
Ki: 0.021 µM
